Experiment [1] concerns rat macrophage-like cells (RAW264.7). The experiment in a line: Vasospastic cell model, PGE2/PGD2 production by ELISA after erythrocyte lysis solution. Format: cell-based. To be noted: blood pretreated with 10 wt % sugar, medium 5 wt % sugar, lysis solution 18 hours. Here is the method: A vasospastic cell model was constructed by using […] macrophage-like cells (RAW264.7) for study on whether trehalose has anti-inflammatory action.
Physiological saline (Sal), 10 wt % trehalose (Tre) and 10 wt % maltose (Mal) were added respectively to the blood collected from a rat (10 to 12 weeks of age, male) for pretreatment, and the mixture was processed in an ultrasonic homogenizer, to prepare an erythrocyte lysis solution. 1×10^6 or 2×10^6 of RAW264.7 cells were inoculated on a plate on the day before addition of the lysis solution, and were cultured in a medium comprising physiological saline, 5 wt % trehalose and 5 wt % maltose (respectively, as abbreviated to Sal, Tre and Mal) placed in an incubator (37° C., CO2: 5%). The culture medium used was Dulbecco's Modified Eagle Medium (D-MEM) comprising 10% fetal bovine serum (FBS), penicillin and streptomycin. The next day, the lysis solution was added in an amount of 1/10 of the medium, and the mixture was incubated in the incubator (37° C., CO2: 5%) for 18 hours. Then, the cells were washed with PBS; new medium was added; and the mixture was placed in the incubator (37° C., CO2: 5%). The medium was collected after one hour for ELISA analysis. The ELISA was carried out by using Prostaglandin E2 EIA kit-monoclonal (manufactured by Cayman) or Prostaglandin D2 EIA kit (manufactured by Cayman). […] For control, a lysis solution-untreated group (added respectively with physiological saline, trehalose and maltose) was also analyzed similarly (FIG. 8, FIG. 9: right column 3). Three or more independent tests were carried out to obtain the average, and the standard deviation obtained was expressed with error bars.

Experiment [2] deals with normal human umbilical vein endothelial cells (HUVEC). The experiment in a line: Vasospastic cell model, PGE2 production by ELISA after erythrocyte lysis solution. Type of experiment: cell-based. The conditions noted are these: lysis solution from blood pretreated with 10 wt % sugar, 6 hours. The method, then: A vasospastic cell model was constructed by using normal human umbilical vein endothelial cells (HUVEC), for study on whether trehalose has anti-inflammatory action.
Physiological saline (Sal), 10 wt % trehalose (tre) and 10 wt % maltose (Mal) were added respectively to the bloods collected from a rat (10 to 12 weeks of age, male) for pretreatment, and the mixture was processed in an ultrasonic homogenizer, to prepare an erythrocyte lysis solution. The HUVEC cells were inoculated on a plate in an amount of 1×10^5 cells on the day before the addition of the lysis solution and were cultured in an incubator (37° C., CO2: 5%). The culture medium used was endothelial cell basic medium (EBM-2) comprising 2% fetalbovine serum (FBS), hEGF (human epidermal growth factor), heparin, hydrocortisone, ascorbic acid, VEGF (vascular endothelial growth factor), R3-IGF-1 (recombinant insulin-like growth factor-1), gentamicin and amphotericin-B. The next day, the lysis solution in an amount of 1/10 of the medium was added to the HUVEC cells, and the mixture was incubated in an incubator (37° C., CO2: 5%) for 6 hours. The medium was then collected for ELISA analysis. […] The lysis solution-untreated group (added respectively with physiological saline, trehalose and maltose) was also analyzed similarly as a control group (FIG. 10: right column 3). […]

A further experiment has as its system femoral artery. The experiment in a line: Vasospasm model using rat femoral artery exposed to self blood. Format: in vivo. To be noted: 7 days after exposure; for arterial sectional area relative to saline-exposed artery: SD rat femoral artery. From the text: Twenty seven male SD rats of 10 weeks of age were divided into three groups randomly. These rats were properly anesthetized. The groin was cut open and then the femoral artery was divided and separated sufficiently from the surrounding soft tissue etc. The femoral artery was covered with a catheter. The catheter used was a 10 mm-length vinyl chloride cylindrical catheter. Self blood collected from femoral vein was fed into the space between the catheter and vascular adventitia and the bottom face of the cylinder was sealed with an adhesive agent. The adhesive agent used was a cyanoacrylate-based adhesive agent. The operations above were carried out aseptically and surgically. Then, the surgical injury was closed. The lumen of the blood-exposed femoral artery narrowed and the tunica intima and tunica media thickened, after peaking in about 7 days after exposure. This model is a model according to “Nakamura et al., Japan Neurosurgical Society, Abstract of 49th Annual Meeting 199, 1990”.
Left and right femoral arteries (FAs) of each rat were exposed to the substances shown in the following Table 1 by using the model above. 4% paraformaldehyde (PFA) solution was perfused, 7 days after commencement of exposure and each femoral artery was fixed and collected. The collected femoral artery (FA) was immersed in 4% PFA, and part of the femoral artery was immersed in sucrose solution and then embedded as frozen. A section of 5 μm in thickness was obtained with cryostat from the frozen femoral artery thus obtained. The section was subjected to hematoxylin-eosin staining (HE staining). The HE-stained sample was analyzed by using an image analyzer equipped with an image analysis program, and the sectional area of the lumen and the thickness of the tunica media in each tissue were determined. The radius of the blood vessel was determined from the peripheral length of the lumen of the blood vessel, and the lumen sectional area was calculated from it. In addition, the distance between the internal and external elastic layers was measured at four points, and the average thereof was determined, to obtain the thickness of the tunica media. There were cases when the blood vessel was cleaved or was not sufficiently fixed during analysis, and thus 6 samples, which were analyzed under favorable conditions, among 9 samples prepared in each group, were selected for collection of data.

Another experiment deals with cerebral vasospasm. The experiment in a line: Rabbit subarachnoid hemorrhage model, intracerebral blood flow by perfusion-MRI. Type of experiment: in vivo. The conditions noted are these: group II, self blood + 15 wt % trehalose solution into cisterna magna, two days after second administration; blood + saline group approximately 60%. The method, then: Intracerebral blood flow was evaluated via perfusion-MRI method by using a rabbit subarachnoid hemorrhage model for analysis of the vasospasm-inhibiting action of trehalose.
After magnetic resonance imaging (MRI) of a NZW rabbit (14 weeks of age, approximately 3.0 kg, male) in the normal state, the occipital region was shaved and the cisterna magna was punctured, and blood samples [group I: self blood+physiological saline (blood+Sal), group II: self blood+15 wt % trehalose solution (blood+Tre) and group III: physiological saline (Sal)] were injected into different test animals respectively in an amount of 3 ml. Additionally, 2 ml of blood sample and physiological saline (total of 5 ml) were injected to the same test animals by a similar method, two days later. Two days after the second administration, the influence of trehalose on cerebral vasospasm was evaluated via perfusion-MRI method (cerebrovascular normality is calculated by injecting a contrast medium through otic vein into the brain and determining the degree of recovery in brightness quantitatively) by using a high-definition MRI apparatus for animals (4.7 tesla, resolution: 50 μm) manufactured by Varian. Three independent tests were carried out to obtain the average, and the standard deviation obtained was expressed with error bars.

For the next experiment, the system named is basilar artery. The experiment in a line: Rabbit subarachnoid hemorrhage model, histological analysis of basilar artery. Format: in vivo. To be noted: group II, self blood + 15 wt % trehalose solution. The method, then:
The vasospasm-inhibiting action of trehalose was analyzed via a histological method by using a rabbit subarachnoid hemorrhage model.
After the occipital region of a NZW rabbit (14 weeks of age, approximately 3.0 kg, male) was shaved and the cisterna magna was punctured, blood samples [group I: self blood+physiological saline (blood+Sal), group II: self blood+15 wt % trehalose solution (blood+Tre) and group III: physiological saline (Sal)] were injected into different test animals respectively in an amount of 3 ml. Additionally, 2 ml of blood sample and physiological saline (total of 5 ml) were injected to the same test animal by a similar method, two days later. Two days after the second administration, the animals were perfused with 4% paraformaldehyde for stabilization, and the brain stem and the basilar arteries were collected. The tissue was embedded in paraffin, cut into a section of 5 μm in thickness, and observed after hematoxylin-eosin staining (HE staining) The results are shown in FIG. 12.

Setting [3] is: two days after second administration.

Molecules are shown by their SMILES.

In the case of `OC[C@H]1O[C@H](O[C@H]2[C@H](O)[C@@H](O)C(O)O[C@@H]2CO)[C@H](O)[C@@H](O)[C@@H]1O` (mixture of isomers) [maltose, reference compound], in experiment [1], the “amount of PGD2 produced versus lysis solution-untreated control group” value was “inflammatory reaction was also induced” and the “amount of PGE2 produced versus lysis solution-untreated control group” value is “inflammatory reaction was also induced”. In experiment [2], the “PGE2 production (induction of inflammatory reaction) versus lysis solution-untreated control group” value is “inflammatory reaction was induced”.
Consider `OC[C@H]1O[C@H](O[C@H]2O[C@H](CO)[C@@H](O)[C@H](O)[C@H]2O)[C@H](O)[C@@H](O)[C@@H]1O` [trehalose], for which the “arterial sectional area relative to saline-exposed artery” value with femoral artery (group II, trehalose 3.75 wt % (blood:15% TL solution = 3:1)) was found to be 86%. Also, the “tunica media thickness (after exposure to blood + trehalose / after exposure to physiological saline)” value with femoral artery (group II, trehalose 3.75 wt %) came to 0.93 times. Also, the “arterial sectional area relative to saline-exposed artery” value in the experiment with femoral artery (group III, trehalose 7.5 wt % (blood:30% TL solution = 3:1)) worked out at 39%. In the experiment on femoral artery (group III, trehalose 7.5 wt %), the “tunica media thickness (after exposure to blood + trehalose / after exposure to physiological saline)” value amounted to 1.74 times. In experiment [1], the “amount of PGD2 produced versus lysis solution-untreated control group” value was “not increased” and the “amount of PGE2 produced versus lysis solution-untreated control group” value is recorded as “not increased”. Moreover, the “PGE2 production (induction of inflammatory reaction) versus lysis solution-untreated control group” value in experiment [2] was “induction of inflammatory reaction was suppressed”. Besides, in the experiment on cerebral vasospasm, the “normality of cerebral blood vessel (brightness after treatment/before treatment), physiological saline group = 100%” value is “approximately 80%”. In addition, the “vasospasm with respect to group I (self blood + physiological saline)” value in the experiment on basilar artery (basilar artery histology) is “suppressed definitely”. In addition, in the experiment on basilar artery (setting [3]), the “blood vessel diameter of basilar artery (HE staining)” value is recorded as “no reduction of the blood vessel diameter” and the “tunica media thickness of basilar artery (HE staining)” value is “some increase in tunica media thickness”.

For the origin of these results see patent US8283337B2, “Therapeutic or prophylactic agent for vasoconstriction” (Next21 K.K., priority 2007, dated 2012).
